Here are results for one compound from patent US20230313199A1, “TARGET FOR MODULATING BODY MASS” (Massachusetts Institute of Technology, priority 2020, published 2023).

SMILES strings stand for the structures.

This test has as its system SERCA2b. Briefly: SERCA2b protein level by Western blotting, THP-1 cells. The following applies: THP-1 cells following heme treatment vs parental THP-1 cells. It counts as cell-based, human. As to the method: FIGS. 5A-5F show MFSD7C and heme regulate thermogenesis through SERCA2b in THP-1 cells. […] 30 hours later, MG132 was added into half of the cells and the other half was not treated. Another 35 hours later, some cells were treated with 40 μM heme for 1 hour before lysis. Cell lysates were immunoprecipitated with anti-FLAG antibody, and eluted, followed by anti-HA immunoprecipitation and elution. Total cell lysate and elute were subjected to Western blotting and probed with anti-SERCA2b or anti-MFSD7C antibodies. Shown are representative data from one of three experiments. […] 24 hrs later, cells were either not treated or treated with 10 μM MG132 for either 6 or 12 hours. The cells were lysed and subjected to FLAG pull-down and blotted with anti-MFSD7C, anti-SERCA2b and anti-ubiquitin antibodies. Shown are representative data from one of three experiments. […] Parental THP-1 cells were either not treated or treated with heme before lysis. Shown are representative data from one of four experiments. […] Shown are representative data from one of two experiments. […] Cells were washed and treated with 40 μM heme for one hour before flow cytometry. Representative FPT histograms from one of three experiments are shown. […] Shown are representative FPT histograms from one of three experiments.
Endogenous protein extraction. […]
For orientation: Immunoblotting shows a protein as a band on a membrane.

As for `C=CC1=C(C)c2cc3[n-]c(cc4[n-]c(cc5nc(cc1n2)C(C)=C5C=C)c(C)c4CCC(=O)O)c(CCC(=O)O)c3C.[Fe+2]` [heme], the SERCA2b level result is “significantly higher”.
